Experimental data as given in US12678412B2, “Substituted tolans for the modulation of microbial colonization” (BioMendics, LLC, priority 2017, dated 2026).

Assays:
[1] = tested on: NEB 5 α competent E. coli; test: Bacterial colony forming assay (Examples 6-9); type: cell-based; conditions: for Effect on E. coli colony count: PEG-400/HPβCD mixed into alcohol gel, FIG. 1; for Inhibition of E. coli growth: alcohol gel formulation, FIG. 2
Description: NEB 5 α competent E. coli were retrieved from frozen cultures and grown overnight in a bacterial incubator at 37° C. Proliferating cultures of bacteria were used in a colony forming assay by adding 25 μL of bacteria from the overnight culture to 10 mL of fresh Lysogeny Broth (LB; Bertani, G. (2004). “Lysogeny at mid-twentieth century: P1, P2, and other experimental systems”. Journal of Bacteriology. 186 (3): 595-600. PMC 321500. PMID 14729683. doi:10.1128/JR.186.3.595-600.2004). 1 mL of this diluted bacteria was added to various dilutions of formulations of substituted tolan compounds as described in Table C, below and in charts of the corresponding Figures.
One mL of each formulation was mixed with 1 mL of diluted bacteria in LB and put onto agar plates. Alcohol gels were allowed to dry and incubated overnight for 16-18 hrs. Control plates consisted of 2 mL alcohol gel plus 1 mL diluted bacteria, resulting in a colony count of less than 10 colonies, a 1 mL alcohol gel plus 1 mL diluted bacteria, resulting in a partial lawn of bacteria (colonies were too close to count appropriately), 1 mL diluted bacteria alone, resulting in a full lawn of bacteria (no distinguishable colonies), and an appropriate dilution of PEG-400 and HPβCD into 1 mL of alcohol gel plus 1 mL diluted bacteria, resulting in a lawn of bacteria. Plate area was then selected and the Image J colony counter was used to obtain colony counts (Size (pixels squared) 5-1000 and circularity 0.5-1).

[2] = tested on: MRSA USA 400 biofilms; test: Cell death in an existing biofilm, DAPI/propidium iodide staining; type: cell-based, Staphylococcus aureus; conditions: 24 h treatment; 0.008 mM to 0.125 mM; FIG. 15
Description: For the treatment of MRSA USA 400 biofilms, the same 96 well plate assay procedure was used as described in the biofilm inhibition section above. However, the MRSA USA 400 inoculum (10^8 CFU/mL) grew overnight at 37° C. in the absence of BM3103 and without shaking. After 24 h of biofilm formation, BM3103 was serially diluted across a 96 well plate from of 1 mM to 0.002 mM. The plate was incubated again overnight at 37° C. without shaking.
In order to confirm that treatment with BM3103 induced MRSA USA 400 bacterial cell death in the existing biofilm, both untreated cells and cells treated with BM3103 were stained with a combination of DAPI (nuclear stain) and Propidium iodide (PI, Live dead stain) as described in Example 15. MRSA USA 400 were plated in a well plate at 10^8 CFU/mL in combination with BM3103 treatment or no treatment. Plates were placed at 37° C. for 24 h. Bacteria cells were co-stained with DAPI and PI at 50 μg/mL and 500 μg/mL, respectively, for 15 min at room temperature. Wells were washed with warmed phosphate buffered saline (PBS) and maintained in PBS throughout the imaging acquisition process. Images were captured using the same exposure limits for each filter. […] Concentrations above 0.125 mM gave a similar result.

[3] = tested on: Methicillin Resistant Staphylococcus aureus (MRSA, USA 400); test: Colony forming assay, 24 h plate assay, MRSA USA 400; type: cell-based
Description: Proliferating cultures of Methicillin Resistant Staphylococcus aureus (MRSA, USA 400) were used in a colony forming assay. Frozen stock cultures of MRSA USA 400 were thawed and grown overnight in tryptic soy broth (TSB) with shaking at 37° C. The overnight culture (0.5-1.0 mL) was added to 100 mL TSB and grown at 37° C. with shaking and monitored for an optical density of 0.55-0.60 in order to obtain a final inoculum suspension of approximately 10^8 CFU/mL.
BM3103 was suspended into a 70% v/v alcohol gel formulation to acquire the desired % w/v tested within the example. Each concentration was vortexed thoroughly until dissolved. Initial tested concentrations of BM3103 were 1, 0.5, and 0.1% w/v. These concentrations and the alcohol gel vehicle were mixed with equal parts of the 10^8 CFU/mL inoculum to obtain a final concentration of 0.5, 0.25, and 0.05% (22 mM, 11 mM, and 2 mM) BM3103. Tobramycin (600 μg/mL) served as the positive control. Vehicle and BM3103 formulations contained matching final concentration of 35% v/v alcohol.
(§1) BM3103 was dissolved into Transcutol (diethylene glycol monoethyl ether) at 2.5% w/v and vortexed until dissolved. This concentration was then serial diluted to achieve the remaining concentrations tested. Before plating, 100 μL of the final inoculum (10^8 CFU/mL) was mixed with 20 μL TSB broth and 80 μL of BM3103 doses or vehicle. Tobramycin, 600 μg/mL, served as the positive control. The final plating concentrations for BM3103 were 1, 0.5, 0.25, and 0.1% w/v (44 mM, 22 mM, 11 mM, 4 mM) BM3103. Vehicle and BM3103 formulations contained matching final concentration of 40% v/v Transcutol.
The above listed formulations combined with the MRSA inoculum were plated onto TSB agar plates. The plates were grown at 37° C. for 24 h, imaged, and the bacteria colonies were counted. The experiment was done in triplicate at each concentration level described above. Colony counts for each treatment were tabulated and the Log of the colony forming units/mL (Log CFU/mL) were determined. The mean and the standard error of the mean were calculated for each treatment.

[4] = tested on: Acinetobacter baumannii; test: Colony forming assay, 24 h plate assay, Acinetobacter baumannii; type: cell-based; conditions: Transcutol formulation, FIG. 11
Description: Proliferating cultures of Acinetobacter baumannii were used in a colony forming assay. Frozen stock cultures of Acinetobacter baumannii were thawed and grown overnight in tryptic soy broth (TSB) with shaking at 37° C. The overnight culture (0.5-1.0 mL) was added to 100 mL TSB and grown at 37° C. with shaking and monitored for an optical density of 0.20-0.38 to obtain a final inoculum suspension of approximately 10^8 CFU/mL.
as §1
The Transcutol formulations combined with the inoculum were plated onto TSB agar plates. The plates were grown at 37° C. for 24 h, imaged, and the bacteria colonies were counted. The experiment was done four times at each concentration level described above. Colony counts for each treatment were tabulated and the Log of the colony forming units/mL (Log CFU/mL) were determined. The mean and the standard error of the mean were calculated for each treatment.

## COc1ccc(C#Cc2ccc(O)cc2)cc1 [BM3103, 4-hydroxy-4′-methoxytolan]
[1]; 280 μM (62.5 μg/mL) dilution
  Effect on E. coli colony count: reduced the E. coli colony count considerably
[1]; 557 μM (125 μg/mL) dilution
  Effect on E. coli colony count: reduced colonization even more
[1]; 2.23 mM (500 μg/mL)
  Inhibition of E. coli growth: inhibited E. coli growth completely
[1]; 4.45 mM (1000 μg/mL)
  Inhibition of E. coli growth: inhibited E. coli growth completely
[2]
  PI staining (cell death) in existing biofilm: dose dependent increase in PI staining
[3]; 0.05% w/v, 2 mM, alcohol gel formulation, compared to the vehicle control, FIG. 9
  Reduction of MRSA USA 400 counts: 4 fold
[3]; 0.1% BM3103, Transcutol formulation, FIG. 10
  Reduction of MRSA USA 400 counts: > 5 fold
[3]; 0.25% BM3103, alcohol gel formulation, FIG. 9
  Bacterial count of MRSA USA 400: no bacterial count
[3]; 0.5% BM3103, alcohol gel formulation, FIG. 9
  Bacterial count of MRSA USA 400: no bacterial count
[3]; remaining concentrations tested (1, 0.5, 0.25% w/v), Transcutol formulation, FIG. 10
  Bacterial count of MRSA USA 400: no bacterial count
[4]; 0.1%
  Reduction of Acinetobacter baumannii bacterial counts: no reduction
[4]; 0.25%
  Reduction of Acinetobacter baumannii bacterial counts: slight reduction
[4]; 0.5%
  Reduction of Acinetobacter baumannii bacterial counts: 4 fold
[4]; 1%
  Reduction of Acinetobacter baumannii bacterial counts: almost a complete reduction
